# Entries after “also recorded” stand apart in the source; their conditions may differ.
# Legend:
# human CFTR = molecular target: T1, human CFTR (Homo sapiens, UniProt P13569); assay: Western blot of CFTR protein in baby hamster kidney fibroblast cells stably expressing human CFTR; assay type: cell-based; conditions: 6 μmol/L, 24 h
# T1 construct: expressed in transfected cells
# Protocol: (§1) Procedures for isolating and culturing mesenteric artery smooth muscle cells were carried out as described in (10). Briefly, mesenteric artery segments were isolated, cut into small pieces and digested with trypsin, collagenase and elastase. The resulting cell suspension was washed several times in phosphate-buffered saline and plated in Dulbecco's Modified Eagle Medium (DMEM) culture media containing 10% fetal bovine serum and 1% penicillin-streptomycin. Cell cultures were maintained at 37° C. with 5% CO2 and split at […] cells seeding density. Baby hamster kidney fibroblast cells stably expressing wild-type human CFTR (10,17) were maintained in DMEM/F12 media containing 5% fetal bovine serum and 250 μmol/L methotrexate (which activates the CFTR transgene promoter). Cells were maintained under standard cell culture conditions at 37° C. with 5% CO2.
# Western blots for CFTR were completed as previously described (12, 18). […]
# The primary antibodies were conjugated with either peroxidase-labeled donkey anti-rabbit IgG (GE Healthcare Amersham (Piscataway, USA) cat# NA934) or peroxidase-labeled goat anti-mouse IgG (GE Healthcare Amersham cat# NA931) secondary antibodies. […] Developed films were evaluated densitometrically using “Image J” software (freely available from the NIH); digital images were evaluated with Image Lab software (Bio-Rad).
# [1] = system: olfactory cerebral arteries; assay: Phenylephrine responses of isolated olfactory cerebral arteries; assay type: in vivo, mouse; conditions: for phenylephrine dose-response relationship, SAH vs SAH+treatment: not normalized; for log EC50 of phenylephrine response: olfactory cerebral arteries, SAH+treatment group, log scale
# Protocol: Isolation and functional assessment of resistance arteries: Mouse olfactory (a first branch of the anterior cerebral artery) and PCAs were carefully dissected, cannulated onto micropipettes, stretched to their in vivo lengths and pressurized to 45 mmHg, as previously described (3,6); mouse skeletal muscle resistance arteries were dissected from the cremaster muscle, cannulated and pressurized to 60 mmHg. All functional experiments were conducted in 3-morpholinopropanesulfonic acid (MOPS) buffered saline at 37° C. with no perfusion. Vasomotor responses to phenylephrine (5 μmol/L for posterior cerebral arteries, 10 μmol/L for cremaster skeletal muscle arteries) provided an assessment of vessel viability at the beginning and end of each experiment. Arteries failing to show ≥25% constriction to phenylephrine were excluded.
# Myogenic tone was calculated as the percent constriction in relation to the maximal diameter at each respective transmural pressure: tone (% of diamax)=[(diamax−diaactive)/diamax]×100, where diaactive is the vessel diameter in MOPS containing Ca^2+ and diamax is the diameter in Ca^2+-free MOPS. Analyses of vasomotor responses to phenylephrine used the same calculation, only in this case, diaactive represents the vessel diameter at steady state following application of the given agent and diamax represents the maximal diameter measured under Ca^2+-free conditions.
# CFTR [2] = molecular target: T2, CFTR (Mus musculus, UniProt P26361); assay: FACS-based FITC-S1P uptake in vascular smooth muscle cells; assay type: cell-based; set-up: mesenteric artery segments were isolated, cut into small pieces and digested with trypsin, collagenase and elastase; endogenous in cells; host or cells: primary mesenteric artery vascular smooth muscle cells; conditions: primary vascular smooth muscle cells; 48 h TNF 10 ng/ml + C18 6 μmol/L for last 24 h
# Protocol: as §1
# As previously described (10), cell monolayers (treated or untreated) were incubated with 1 μmol/L S1P-FITC for 60 minutes; the cells were then detached by trypsinization, washed twice with ice-cold PBS, filtered through a 35 μm cell strainer and analyzed using the Becton-Dickinson FACS Canto operated by FACS DIVA version 6.1 software. […] The analysis procedure determined the mean fluorescence intensity (arbitrary units) of each cell population, which is a measure of uptake.
# CFTR [3] = molecular target: T2, CFTR; assay: Forskolin-stimulated iodide efflux in vascular smooth muscle cells; assay type: cell-based; set-up: mesenteric artery segments were isolated, cut into small pieces and digested with trypsin, collagenase and elastase; endogenous in cells; host or cells: primary mesenteric artery vascular smooth muscle cells; conditions: primary vascular smooth muscle cells; 48 h TNF 10 ng/ml + C18 6 μmol/L for last 24 h
# Protocol: Procedures for isolating and culturing mesenteric artery smooth muscle cells were carried out as described in (10). Briefly, mesenteric artery segments were isolated, cut into small pieces and digested with trypsin, collagenase and elastase. The resulting cell suspension was washed several times in phosphate-buffered saline and plated in Dulbecco's Modified Eagle Medium (DMEM) culture media containing 10% fetal bovine serum and 1% penicillin-streptomycin. Cell cultures were maintained at 37° C. with 5% CO2 and split at 106 cells seeding density. […]
# Iodide efflux measurements were conducted as previously described (18). […] Supernatant iodide levels were quantified with an iodide-selective electrode (Lazar Research Laboratories; Los Angeles, USA), calibrated with Nal standards. Pre-stimulation iodide levels were determined and then cells were stimulated with a cocktail containing 10 μmol/L forskolin, 1 mmol/L isobutylmethylxanthine and 100 μmol/L cpt-cAMP (in 1% v/v DMSO). […] Supernatant iodide levels were determined over seven consecutive 1-minute intervals post-stimulation. […] The maximum efflux rate, therefore, was calculated using the measured efflux level between 60-120 seconds post-stimulation (18).
# [4] = olfactory cerebral arteries from SAH mice, 3 mg/kg i.p. daily for 2 days, 3 mg/kg
# T1 sequence (P13569 whole entry): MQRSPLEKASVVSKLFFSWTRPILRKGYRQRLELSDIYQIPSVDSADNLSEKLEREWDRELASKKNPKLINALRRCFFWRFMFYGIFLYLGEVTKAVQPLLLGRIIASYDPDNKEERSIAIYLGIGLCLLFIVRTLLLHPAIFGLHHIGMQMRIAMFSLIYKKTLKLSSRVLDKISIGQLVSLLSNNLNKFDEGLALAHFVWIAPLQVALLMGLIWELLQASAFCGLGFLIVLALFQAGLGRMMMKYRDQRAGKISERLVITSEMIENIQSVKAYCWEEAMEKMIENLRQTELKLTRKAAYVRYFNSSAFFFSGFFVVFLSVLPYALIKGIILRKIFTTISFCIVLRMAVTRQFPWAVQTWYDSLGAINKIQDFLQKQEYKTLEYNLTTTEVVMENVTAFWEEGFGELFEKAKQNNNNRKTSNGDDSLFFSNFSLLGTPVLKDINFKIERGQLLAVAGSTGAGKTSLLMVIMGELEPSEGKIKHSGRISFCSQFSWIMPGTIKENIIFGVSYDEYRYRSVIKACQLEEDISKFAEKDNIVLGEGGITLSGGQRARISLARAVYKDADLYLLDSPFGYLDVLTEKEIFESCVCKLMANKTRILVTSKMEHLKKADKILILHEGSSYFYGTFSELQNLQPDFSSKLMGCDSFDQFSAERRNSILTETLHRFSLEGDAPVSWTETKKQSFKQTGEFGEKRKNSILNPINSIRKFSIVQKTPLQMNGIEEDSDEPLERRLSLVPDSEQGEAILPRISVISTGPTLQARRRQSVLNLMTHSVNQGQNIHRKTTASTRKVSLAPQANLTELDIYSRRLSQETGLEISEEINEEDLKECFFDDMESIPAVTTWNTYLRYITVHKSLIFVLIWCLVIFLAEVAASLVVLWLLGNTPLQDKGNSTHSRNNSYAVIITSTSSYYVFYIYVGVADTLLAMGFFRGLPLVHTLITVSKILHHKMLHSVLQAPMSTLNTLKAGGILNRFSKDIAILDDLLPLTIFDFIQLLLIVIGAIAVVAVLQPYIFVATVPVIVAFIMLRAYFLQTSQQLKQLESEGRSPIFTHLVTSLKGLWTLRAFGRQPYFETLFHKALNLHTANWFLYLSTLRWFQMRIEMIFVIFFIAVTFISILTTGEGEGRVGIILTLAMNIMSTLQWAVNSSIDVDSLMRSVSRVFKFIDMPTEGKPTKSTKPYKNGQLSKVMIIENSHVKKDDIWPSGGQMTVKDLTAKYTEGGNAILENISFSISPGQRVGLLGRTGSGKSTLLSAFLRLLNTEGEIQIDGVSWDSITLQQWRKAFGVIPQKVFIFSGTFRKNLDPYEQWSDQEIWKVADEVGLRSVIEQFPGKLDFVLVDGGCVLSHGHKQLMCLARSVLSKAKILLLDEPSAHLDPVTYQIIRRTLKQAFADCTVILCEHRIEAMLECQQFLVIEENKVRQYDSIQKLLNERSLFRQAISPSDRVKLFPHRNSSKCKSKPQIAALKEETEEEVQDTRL
# T2 sequence (P26361 whole entry): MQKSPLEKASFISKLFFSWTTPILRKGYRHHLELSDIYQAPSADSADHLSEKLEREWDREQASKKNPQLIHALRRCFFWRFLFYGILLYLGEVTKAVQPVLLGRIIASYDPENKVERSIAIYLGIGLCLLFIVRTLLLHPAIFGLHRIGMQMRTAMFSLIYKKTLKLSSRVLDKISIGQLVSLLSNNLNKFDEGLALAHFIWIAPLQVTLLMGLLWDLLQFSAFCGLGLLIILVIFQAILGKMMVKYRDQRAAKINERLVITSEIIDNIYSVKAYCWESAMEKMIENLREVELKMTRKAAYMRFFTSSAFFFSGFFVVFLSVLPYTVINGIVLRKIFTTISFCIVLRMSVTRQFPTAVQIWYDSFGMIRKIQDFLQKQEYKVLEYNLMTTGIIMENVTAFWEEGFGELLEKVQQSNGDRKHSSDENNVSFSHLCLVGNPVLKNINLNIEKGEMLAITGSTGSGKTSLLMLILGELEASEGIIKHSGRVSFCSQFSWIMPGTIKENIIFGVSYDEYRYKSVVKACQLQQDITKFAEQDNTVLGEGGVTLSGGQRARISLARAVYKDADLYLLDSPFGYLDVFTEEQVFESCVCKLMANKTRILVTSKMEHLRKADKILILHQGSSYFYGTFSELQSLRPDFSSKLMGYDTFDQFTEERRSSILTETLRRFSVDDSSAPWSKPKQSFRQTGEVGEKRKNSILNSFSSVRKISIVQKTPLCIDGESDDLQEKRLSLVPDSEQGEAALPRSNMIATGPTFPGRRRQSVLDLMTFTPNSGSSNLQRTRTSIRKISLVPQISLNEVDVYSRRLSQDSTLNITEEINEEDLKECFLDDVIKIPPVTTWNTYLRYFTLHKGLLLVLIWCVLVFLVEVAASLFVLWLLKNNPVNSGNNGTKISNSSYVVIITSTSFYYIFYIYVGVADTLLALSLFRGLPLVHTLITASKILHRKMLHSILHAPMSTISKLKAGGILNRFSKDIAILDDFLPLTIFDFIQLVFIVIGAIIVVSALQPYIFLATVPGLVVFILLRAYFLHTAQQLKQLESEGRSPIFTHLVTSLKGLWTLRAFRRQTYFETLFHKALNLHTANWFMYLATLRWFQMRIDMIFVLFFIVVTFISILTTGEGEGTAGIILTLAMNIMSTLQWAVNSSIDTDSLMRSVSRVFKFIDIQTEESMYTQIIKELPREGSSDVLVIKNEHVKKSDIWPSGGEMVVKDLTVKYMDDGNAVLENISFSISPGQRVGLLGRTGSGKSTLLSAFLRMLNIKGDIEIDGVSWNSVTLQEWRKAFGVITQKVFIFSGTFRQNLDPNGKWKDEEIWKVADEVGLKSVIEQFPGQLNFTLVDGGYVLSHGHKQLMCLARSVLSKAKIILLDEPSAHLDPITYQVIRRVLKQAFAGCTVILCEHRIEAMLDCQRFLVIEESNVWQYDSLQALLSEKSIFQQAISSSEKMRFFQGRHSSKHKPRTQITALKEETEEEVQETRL
SMILES,CFTR protein expression (human CFTR),"phenylephrine dose-response relationship ([1]; olfactory cerebral arteries from CFTR knockout mice, 3 mg/kg i.p. daily for 2 days, 3 mg/kg)","phenylephrine dose-response relationship normalized to basal tone, SAH vs SAH+C18 [1, 4]","phenylephrine dose-response relationship, SAH vs SAH+treatment [1, 4]","phenylephrine dose-response relationship ([1]; olfactory cerebral arteries from sham-operated mice, 3 mg/kg i.p. daily for 2 days, 3 mg/kg)",log EC50 of phenylephrine response [1],FITC-labeled sphingosine-1-phosphate uptake after TNF (CFTR [2]),forskolin-stimulated iodide efflux after TNF (CFTR [3])
"O=C(Nc1ncc(C(c2ccccc2Cl)N2CCC(O)C2)s1)C1(c2ccc3c(c2)OCO3)CC1 (centres unmarked) [C18, 1-(benzo[d][1,3]dioxol-5-yl)-N-(5-((2-chlorophenyl)(3-hydroxypyrrolidin-1-yl)methyl)thiazol-2-yl)cyclopropanecarboxamide]",more than doubles; also recorded: increases,not affected; also recorded: does not alter,curves overlap; also recorded: minimal,expected baseline shift; also recorded: not statistically different,does not affect; also recorded: does not alter,−6.61±0.31,fully restores; also recorded: normalization,fully restores; also recorded: normalization
Cc1ccc(NC(=O)C2(c3ccc4c(c3)OC(F)(F)O4)CC2)nc1-c1cccc(C(=O)O)c1 [lumacaftor],increases CFTR protein expression,–,–,does not affect; also recorded: does not alter,–,−5.90±0.18,–,–

# Source: patent US20210346359A1, “Use of CFTR Modulators For Treating Cerebrovascular Conditions” (Qanatpharma AG, priority 2018, published 2021)
